{"source": "patent US7517998B2", "about": "“Non nucleoside reverse transcriptase inhibitors” (priority 2004, dated 2009)"}
{"molecular_target": "T1, K103NNY181C mutant reverse transcriptase (Human immunodeficiency virus type 1 group M subtype B, UniProt P04585, K690N/Y768C)", "T1 construct": "mutations that occur in the reverse transcriptase segment of the pol gene", "experiment": "Reverse transcriptase enzymatic assay (PicoGreen), K103N/Y181C mutant RT", "type": "biochemical, HIV-1", "conditions": "IC50 mut (nM), mutant (K103N/Y181C) reverse transcriptase, enzymatic assay of Example 24", "outline": "(§1)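 HIV-1 RT (2.5 nM final) pre-incubated 15 min at room temperature with inhibitor, then reacted 50 min at 37 °C with poly rC 45 nM, dG15 4.5 nM, dGTP 3.6 μM in Tris/HCl pH 7.8, 1% DMSO. Final inhibitor 10 μM to 0.508 nM; EDTA-quenched, PicoGreen fluorescence read at 485/520 nm.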", "units": {"IC50": "nM"}}
{"smiles": "CC(C)(C)c1ccc(-n2nnnc2SCC(=O)Nc2ccc(NC(=O)c3cccc(C(=O)O)c3)cc2Cl)c(Cl)c1", "note": "[Compound 7027]", "IC50": 134}
{"smiles": "CC(C)(C)c1ccc(-n2nnnc2SCC(=O)Nc2ccc(NC(=O)Cc3ccncc3)cc2Cl)c(Cl)c1", "note": "[Compound 7030]", "IC50": 38}
{"smiles": "CC(C)(C)c1ccc(-n2nnnc2SCC(=O)Nc2ccc(NC(=O)Cc3c(Cl)cccc3Cl)cc2Cl)c(Cl)c1", "note": "[Compound 7036]", "IC50": 712}
{"smiles": "CC(C)(C)c1ccc(-n2nnnc2SCC(=O)Nc2ccc(NC(=O)Cc3c[nH]c4ccccc34)cc2Cl)c(Cl)c1", "note": "[Compound 7043]", "IC50": 145}
{"smiles": "CC(=O)NC(C(=O)Nc1ccc(NC(=O)CSc2nnnn2-c2ccc(C(C)(C)C)cc2Cl)c(Cl)c1)c1ccccc1", "note": "(stereo not shown) [Compound 7033]", "IC50": 21.5}
{"molecular_target": "T1, K103NNY181C mutant reverse transcriptase", "experiment": "Reverse transcriptase enzymatic assay (PicoGreen), K103N/Y181C mutant RT", "type": "biochemical, HIV-1", "conditions": "IC50 mut, K103N/Y181C mutant reverse transcriptase, enzymatic assay of Example 24", "outline": "as §1", "units": {"IC50": "nM"}}
{"smiles": "CC(C)(C#Cc1ccc(NC(=O)CSc2nnnn2-c2cc(Cl)c(C3CC3)cc2Cl)c(Cl)c1)C(=O)O", "note": "[Compound 4206]", "IC50": 152}
{"smiles": "CC(C)(C#Cc1ccc(NC(=O)CSc2nnnn2-c2ccc(C3CC3)cc2Cl)c(Cl)c1)NC(=O)c1ccccc1", "note": "[Compound 4106]", "IC50": 19}
{"smiles": "CC(C)(C#Cc1ccc(NC(=O)CSc2nnnn2-c2ccc(C3CC3)cc2Cl)c(Cl)c1)OCCN1CCS(=O)(=O)CC1", "note": "[Compound 4241]", "IC50": 30.5}
{"smiles": "CC(C)(C#Cc1ccc(NC(=O)CSc2nnnn2-c2ccc(C3CC3)cc2Cl)c(Cl)c1)NC(=O)c1cnccn1", "note": "[Compound 4111]", "IC50": 8.6}
{"smiles": "CC(C)(N)C#Cc1ccc(NC(=O)CSc2nnnn2-c2cc(C3CC3)cc(C(F)(F)F)c2Cl)c(Cl)c1F", "note": "[Compound 4250]", "IC50": 51.5}
{"smiles": "CC(C)(C#Cc1ccc(NC(=O)CSc2nnnn2-c2cc(F)ccc2Cl)c(Cl)c1)C(=O)O", "note": "[Compound 4212]", "IC50": 362}
{"smiles": "CC(C)(C#Cc1ccc(NC(=O)CSc2nnnn2-c2ccc(C3CC3)cc2Cl)c(Cl)c1F)NC(=O)c1cc[n+]([O-])cc1", "note": "[Compound 4157]", "IC50": 5.95}
{"smiles": "CC(C)(C#Cc1ccc(NC(=O)CSc2nnnn2-c2ccc(C3CC3)cc2Cl)c(Cl)c1)NC(=O)C1CC1", "note": "[Compound 4079]", "IC50": 6.8}
{"smiles": "CN(C)c1ccc(CNC(=O)C(C)(C)C#Cc2ccc(NC(=O)CSc3nnnn3-c3ccc(C4CC4)cc3Cl)c(Cl)c2)cc1", "note": "[Compound 4153]", "IC50": 127}
{"smiles": "CC(C)(C#Cc1ccc(NC(=O)CSc2nnnn2-c2ccc(C3CC3)cc2Cl)c(Cl)c1)C(=O)NS(=O)(=O)C1CC1", "note": "[Compound 4184]", "IC50": 30.5}
{"smiles": "CC(C)(C#Cc1ccc(NC(=O)CSc2nnnn2-c2cc(C(F)(F)F)ccc2Cl)c(Cl)c1F)OCCOc1ccncc1", "note": "[Compound 4166]", "IC50": 126}
{"smiles": "CC(C)(C#Cc1ccc(NC(=O)CSc2nnnn2-c2cc(Cl)ccc2Cl)c(Cl)c1)C(=O)O", "note": "[Compound 4162]", "IC50": 99}
{"smiles": "CC(C)(C#Cc1ccc(NC(=O)CSc2nnnn2-c2ccc(C(C)(C)C)cc2Cl)c(Cl)c1)COC(N)=O", "note": "[Compound 4033]", "IC50": 36}
{"smiles": "C=CC#Cc1ccc(NC(=O)CSc2nnnn2-c2ccc(C3CC3)cc2Cl)c(Cl)c1", "note": "[Compound 4133]", "IC50": 53.5}
{"smiles": "CC(C)(C#Cc1ccc(NC(=O)CSc2nnnn2-c2cc(C(F)(F)F)cc(C3CC3)c2Cl)c(Cl)c1)OCCN1CCC(F)(F)C1", "note": "[Compound 4242]", "IC50": 854}
{"smiles": "COC(C)(C)C#Cc1ccc(NC(=O)CSc2nnnn2-c2ccc(C3CC3)cc2Cl)c(Cl)c1", "note": "[Compound 4074]", "IC50": 35.5}
{"smiles": "CC(C)(C#Cc1ccc(NC(=O)CSc2nnnn2-c2cc(C(F)(F)F)ccc2Cl)c(Cl)c1F)C(=O)NCCN1CCCC1", "note": "[Compound 4160]", "IC50": 114}
{"smiles": "CC(C)(C#Cc1ccc(NC(=O)CSc2nnnn2-c2ccc(C3CC3)cc2Cl)c(Cl)c1F)OCCO", "note": "[Compound 4169]", "IC50": 9.2}
{"smiles": "CC(C)(C#Cc1ccc(NC(=O)CSc2nnnn2-c2cc(C(F)(F)F)ccc2Cl)c(Cl)c1)C(=O)O", "note": "[Compound 4196]", "IC50": 198}
{"smiles": "CC(C)(C#Cc1ccc(NC(=O)CSc2nnnn2-c2cc(Cl)ccc2Cl)c(Cl)c1)NC(=O)c1cc[n+]([O-])cc1", "note": "[Compound 4189]", "IC50": 19.5}
{"smiles": "CC(C)(C#Cc1ccc(NC(=O)CSc2nnnn2-c2ccccc2Cl)c(Cl)c1)C(=O)O", "note": "[Compound 4207]", "IC50": 442}
{"smiles": "CN1CCN(CC#Cc2ccc(NC(=O)CSc3nnnn3-c3ccc(C(C)(C)C)cc3Cl)c(Cl)c2)CC1", "note": "[Compound 4015]", "IC50": 40}
{"smiles": "CC(C)(O)C#Cc1ccc(NC(=O)CSc2nnnn2-c2cc(F)cc(C(F)(F)F)c2Cl)c(Cl)c1", "note": "[Compound 4029]", "IC50": 212}
{"smiles": "CC(C)(C#Cc1ccc(NC(=O)CSc2nnnn2-c2cc(C3CC3)ccc2Cl)c(Cl)c1)C(=O)O", "note": "[Compound 4174]", "IC50": 34}
{"smiles": "CC(C)(C#Cc1ccc(NC(=O)CSc2nnnn2-c2cc(C(F)(F)F)ccc2Cl)c(Cl)c1)OCCN1CCCC1", "note": "[Compound 4142]", "IC50": 50.5}
{"smiles": "CC(C)(C#Cc1ccc(NC(=O)CSc2nnnn2-c2ccc(C3CC3)cc2Cl)c(Cl)c1)NC(=O)Cn1cncn1", "note": "[Compound 4109]", "IC50": 10.8}
{"smiles": "CN(C)CC(=O)NC(C)(C)C#Cc1ccc(NC(=O)CSc2nnnn2-c2ccc(C3CC3)cc2Cl)c(Cl)c1F", "note": "[Compound 4155]", "IC50": 9.15}
{"smiles": "CC(C)(C#Cc1ccc(NC(=O)CSc2nnnn2-c2ccc(C3CC3)cc2Cl)c(Cl)c1)NC(=O)c1cc[n+]([O-])cc1", "note": "[Compound 4086]", "IC50": 12}
{"smiles": "CC(C)(C#Cc1ccc(NC(=O)CSc2nnnn2-c2ccc(CC3CC3)cc2Cl)c(Cl)c1)C(=O)NCCCN1CCCC1=O", "note": "[Compound 4244]", "IC50": 217}
{"smiles": "CNC(=O)COC(C)(C)C#Cc1ccc(NC(=O)CSc2nnnn2-c2ccc(C(C)(C)C)cc2Cl)c(Cl)c1", "note": "[Compound 4051]", "IC50": 35}
{"smiles": "CC(C)(C#Cc1ccc(NC(=O)CSc2nnnn2-c2ccc(C3CC3)cc2Cl)c(Cl)c1)NC(=O)CC(=O)O", "note": "[Compound 4232]", "IC50": 10}
{"molecular_target": "T1, K103NNY181C mutant reverse transcriptase", "experiment": "Reverse transcriptase enzymatic assay (PicoGreen), K103N/Y181C mutant RT", "type": "biochemical, HIV-1", "conditions": "IC50 mut, mutant reverse transcriptase, enzymatic assay of Example 24", "outline": "as §1", "units": {"IC50": "nM"}}
{"smiles": "CC(C)(C)c1ccc(-n2nnnc2SCC(=O)Nc2ccc(C(=O)Nc3ccc(CC(=O)O)cc3)cc2Cl)c(Cl)c1", "note": "[Compound 6001]", "IC50": 69}
{"smiles": "CC(C)(C)c1ccc(-n2nnnc2SCC(=O)Nc2ccc(OCC(=O)NCCc3ccncc3)cc2Cl)c(Cl)c1", "note": "[Compound 5024]", "IC50": 66}
{"smiles": "CC(C)(C)c1ccc(-n2nnnc2SCC(=O)Nc2ccc(-c3ccc(CCC(=O)O)cc3)cc2Cl)c(Cl)c1", "note": "[Compound 2028]", "IC50": 9.3}
{"smiles": "CN1CCN(S(=O)(=O)c2ccc(NC(=O)CSc3nnnn3-c3ccc(C4CC4)cc3Cl)c(Cl)c2)CC1", "note": "[Compound 3036]", "IC50": 88}
{"smiles": "COC(=O)CN(C)CCOc1ccc(-c2ccc(NC(=O)CSc3nnnn3-c3ccc(C(C)(C)C)cc3Cl)c(Cl)c2)cc1", "note": "[Compound 2043]", "IC50": 32}
{"smiles": "Cc1cc(NC(=O)COc2ccc(NC(=O)CSc3nnnn3-c3ccc(C(C)(C)C)cc3Cl)c(Cl)c2)no1", "note": "[Compound 5001]", "IC50": 71}
{"smiles": "Cc1ccc(-n2nnnc2SCC(=O)Nc2ccc(-c3nnn[nH]3)cc2Cl)c(Cl)c1", "note": "[Compound 3019]", "IC50": 539}
{"smiles": "COC(=O)c1ccc(-c2ccc(NC(=O)CSc3nnnn3-c3ccc(C(C)(C)C)cc3Cl)c(Cl)c2)cc1", "note": "[Compound 2008]", "IC50": 39}
{"smiles": "O=C(CSc1nnnn1-c1ccc(C2CC2)cc1Cl)Nc1ccc(C(=O)NCc2ccc[n+]([O-])c2)cc1Cl", "note": "[Compound 6039]", "IC50": 104}
{"smiles": "Cc1ccc(-n2nnnc2SCC(=O)Nc2ccc(-c3ccc(C(=O)O)cc3)cc2Cl)c(Cl)c1", "note": "[Compound 2002]", "IC50": 53}
{"smiles": "COC(=O)C1CCN(CCOc2ccc(NC(=O)CSc3nnnn3-c3ccc(C(C)(C)C)cc3Cl)c(Cl)c2)CC1", "note": "[Compound 3035]", "IC50": 355}
{"smiles": "CC(C)(C)c1ccc(-n2nnnc2SCC(=O)Nc2ccc(OCC(=O)NC[C@H]3CC[C@H](C(=O)O)CC3)cc2Cl)c(Cl)c1", "note": "[Compound 5031]", "IC50": 118}
{"smiles": "CC(C)(C)c1ccc(-n2nnnc2SCC(=O)Nc2ccc(C(=O)NCCc3ccncc3)cc2Cl)c(Cl)c1", "note": "[Compound 6023]", "IC50": 22}
{"smiles": "CC(C)(C)c1ccc(-n2nnnc2SCC(=O)Nc2ccc(C(=O)Nc3ccc(CCC(=O)O)cc3)cc2Cl)c(Cl)c1", "note": "[Compound 6031]", "IC50": 29.5}
{"smiles": "Cc1ccc(-c2c(OCC(=O)Nc3ccc(C#CC(C)(C)O)cc3Cl)n[nH]c2C)c(Cl)c1", "note": "[Compound 1016]", "IC50": 48}
{"smiles": "CC(C)(C)c1ccc(-n2nnnc2SCC(=O)Nc2ccc(C(=O)NCc3cccnc3)cc2Cl)c(Cl)c1", "note": "[Compound 6008]", "IC50": 26}
{"smiles": "Cc1ccc(-n2nccc2OCC(=O)Nc2ccc(-c3ccc(CC(=O)O)cc3)cc2Cl)c(Cl)c1", "note": "[Compound 1003]", "IC50": 770}
{"smiles": "Cc1ccc(-c2ncsc2SCC(=O)Nc2ccc(-c3ccc(CC(=O)O)cc3)cc2Cl)c(Cl)c1", "note": "[Compound 1002]", "IC50": 795}
{"smiles": "Cc1nnc(SCC(=O)Nc2ccc(C#CC(C)(C)COC(N)=O)cc2Cl)n1-c1ccc(C2CC2)cc1Cl", "note": "[Compound 1011]", "IC50": 21}
{"smiles": "CC(C)(C)c1ccc(-n2nnnc2SCC(=O)Nc2ccc(OCC(=O)Nc3ccccc3O)cc2Cl)c(Cl)c1", "note": "[Compound 5009]", "IC50": 131}
{"smiles": "CC(C)(C)c1ccc(-n2nnnc2SCC(=O)Nc2ccc(C(=O)NCCN3CCOCC3)cc2Cl)c(Cl)c1", "note": "[Compound 6028]", "IC50": 55}
{"smiles": "Cc1ccc(-n2nnnc2SCC(=O)Nc2ccc(-c3cocn3)cc2Cl)c(Cl)c1", "note": "[Compound 3016]", "IC50": 359}
{"smiles": "COC(=O)Cc1ccc(-c2ccc(NC(=O)CSc3nnnn3-c3ccc(C)cc3Cl)c([N+](=O)[O-])c2)cc1", "note": "[Compound 2010]", "IC50": 40}
{"smiles": "CC(C)(C)c1ccc(-n2nnnc2SCC(=O)Nc2ccc(OCC(=O)Nc3cccc(C(=O)O)c3)cc2Cl)c(Cl)c1", "note": "[Compound 5022]", "IC50": 106}
{"smiles": "CC(C)(C)c1ccc(-n2nnnc2SCC(=O)Nc2ccc(-c3ccc(OCCN4CCCC4)cc3)cc2Cl)c(Cl)c1", "note": "[Compound 2029]", "IC50": 19}
{"smiles": "CC(C)(C)c1ccc(-n2nnnc2SCC(=O)Nc2ccc(C(=O)NCc3ccc(O)c(O)c3)cc2Cl)c(Cl)c1", "note": "[Compound 6019]", "IC50": 36}
{"smiles": "Cc1ccc(-n2nnnc2SCC(=O)Nc2ccc(-c3ccc(CC(N)=O)cc3)cc2Cl)c(Cl)c1", "note": "[Compound 2012]", "IC50": 15}
{"smiles": "O=C(CSc1nnnn1-c1cc(C(F)(F)F)ccc1Cl)Nc1ccc(-c2ccc(OCCN3CCCCC3)cc2)cc1Cl", "note": "[Compound 2049]", "IC50": 54}
